Data published in patent US20040248762A1, “Malodor counteractant compositions” (priority 2003, published 2004).
Values joined by “and” are separate entries in the source; they are usually repeats but may differ in a detail not shown here. Equal values may be shown once.

How the values were obtained:
[1] = Synthetic axilla malodor on cotton pads, panel rating of malodor strength; design: species or system human; conditions: scale 5 overpowering to 1 not detectable; for 5% OMC + 5% Compound B (axilla malodor panel score): mixture 5% OMC + 5% Compound B
Procedure: 100 μl of synthetic axilla malodor was placed onto cotton pads. 0.4 g of an ethanolic solution containing 10% (wt) of a test compound identified in Table 1 was placed on each axilla malodor treated cotton pad. Each pad was allowed to dry 15 for minutes, and then evaluated using a 10-member panel after 3 hours. The test cotton pads were randomized, and each panelist was asked to check a box that represented the strength of the axilla malodor using the following scale:
In this example, the MOC effect of various mixtures of a Class A MOC compound and a Class B MOC compound (i.e., dihexyl fumerate as disclosed in Kulka, U.S. Pat. No. 3,074,892) were evaluated using the same test and malodor evaluation procedures as set forth in Example 1. Each test solution contained 5% (wt) DHF and 5% (wt) of the Class A compound identified in Table 3. The MOC effect was evaluated as in Example 1.
Various mixtures of OMC (a Class A Compound) and a Class B compound (i.e., various cyclohexyl esters as disclosed in Schleppnik '221) as identified in Table 4 below were made according to the procedure set forth in Example 1. The MOC of each mixture was evaluated using the procedure set forth in Example 1.

[2] = MOC of sweat malodor on fabric swatches; design: species or system human; conditions: summary of Table 6
Procedure: The following fabric treatment solutions were prepared:
1. A solution of ethanol and Cremophor (a hydrogenated ethoxylated castor oil marketed by BASF Corp., Mount Olive, N.J.) containing 10% (wt) of dihexyl fumerate (DHF).
2. A solution of ethanol and Cremophor containing 10% (wt) of OMC.
3. A solution of ethanol and Cremophor containing 5% (wt) of DHF+5% (wt) OMC.
Five (5) fabric swatches were prepared, and labeled A-E. Swatch A was designated as the control swatch with no malodor. 100 μl of sweat malodor was placed in the middle of swatches B-E. Swatch B was designated as the control swatch for the malodor. The swatches were allowed to equilibrate with the malodor for 20 minutes. Onto swatches C-E, the following solutions were sprayed:
The malodor intensity on the cotton swatches was evaluated as follows:
The malodor intensity on swatch B (Malodor Control) was identified as a 5 (overpoweringly strong) on the scale of 1-5 set forth below at every time point, and the rest of swatches were evaluated based on that standard.

CCCCC(CC)COC(=O)/C=C/c1ccc(OC)cc1 (stereo not drawn) [OMC, Octyl methoxy cinnamate]
10% OMC (Alone) (axilla malodor panel score) ([1]; 10% OMC alone, run beside the Compound B of that table line): 3.1 and 2.6 and 3.2 | 5% OMC + 5% Compound B (axilla malodor panel score) ([1]; procedure of Example 1): acts at least additively | MOC effect on sweat malodor on fabric (in words) [2]: had a MOC effect

CCCCCCOC(=O)/C=C/C(=O)OCCCCCC [Dihexyl Fumerate, reference compound]
10% test (Compound B Alone) (axilla malodor panel score) ([1]; 10% Compound B alone, procedure of Example 1): 2.6 | 5% OMC + 5% Compound B (axilla malodor panel score) ([1]; procedure of Example 1): 2.3 | MOC effect on sweat malodor on fabric (in words) [2]: had a MOC effect
